Measured values: PubChem BioAssay (NCI)
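48-hour exposure; five concentrations; linearly interpolated endpoints. Abbreviation: GI50, concentration required for 50% inhibition of growth. TGI: total growth inhibition.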

Tests used:
Assay in all cases: NCI tumour cell line growth inhibition, 48 h
786-0 renal = tested on: 786-0 renal
ACHN renal = tested on: ACHN renal
COLO 205 colon = tested on: COLO 205 colon
IGROV1 ovarian = tested on: IGROV1 ovarian
MOLT-4 leukemia = tested on: MOLT-4 leukemia
NCI-H23 lung = tested on: NCI-H23 lung
SF-295 CNS = tested on: SF-295 CNS
SN12C renal = tested on: SN12C renal
UACC-257 melanoma = tested on: UACC-257 melanoma

SMILES: O=C(Cc1ccccc1)NN1C(=O)/C(=C\c2ccc(O)cc2)SC1=Nc1ccccc1
- TGI (786-0 renal): > 100 µM
- TGI (ACHN renal): > 100 µM
- TGI (COLO 205 colon): > 100 µM
- TGI (IGROV1 ovarian): > 100 µM
- TGI (MOLT-4 leukemia): > 100 µM
- TGI (NCI-H23 lung): > 100 µM
- TGI (SF-295 CNS): > 100 µM
- TGI (SN12C renal): > 100 µM
- TGI (UACC-257 melanoma): > 100 µM

SMILES: CCOC(=O)[C@H]1Nc2ccccc2C2c3ccccc3CC21 (stereo partly drawn)
- TGI (786-0 renal): > 100 µM
- TGI (ACHN renal): > 100 µM
- TGI (COLO 205 colon): > 100 µM
- TGI (IGROV1 ovarian): > 100 µM
- TGI (MOLT-4 leukemia): > 100 µM
- TGI (NCI-H23 lung): > 100 µM
- TGI (SF-295 CNS): > 100 µM
- TGI (SN12C renal): 96.3 µM
- TGI (UACC-257 melanoma): 56.9 µM

SMILES: COC(=O)/C(=N\NC(N)=S)C(C#N)c1ccccc1 (stereo not drawn)
- TGI (786-0 renal): > 100 µM
- TGI (ACHN renal): > 100 µM
- TGI (COLO 205 colon): > 100 µM
- TGI (IGROV1 ovarian): > 100 µM
- TGI (MOLT-4 leukemia): > 100 µM
- TGI (NCI-H23 lung): > 100 µM
- TGI (SF-295 CNS): > 100 µM
- TGI (SN12C renal): > 100 µM
- TGI (UACC-257 melanoma): > 100 µM

SMILES: CC1CC2(C)CC(=O)C1C1C(=O)N(CCN3CCCCC3)C(=O)C12 (stereo not drawn)
- GI50 (786-0 renal): > 100 µM
- TGI (786-0 renal): > 100 µM
- GI50 (ACHN renal): > 100 µM
- TGI (ACHN renal): > 100 µM
- GI50 (COLO 205 colon): > 100 µM
- TGI (COLO 205 colon): > 100 µM
- GI50 (IGROV1 ovarian): > 100 µM
- TGI (IGROV1 ovarian): > 100 µM
- GI50 (MOLT-4 leukemia): > 100 µM
- TGI (MOLT-4 leukemia): > 100 µM
- GI50 (NCI-H23 lung): > 100 µM
- TGI (NCI-H23 lung): > 100 µM
- GI50 (SF-295 CNS): > 100 µM
- TGI (SF-295 CNS): > 100 µM
- GI50 (SN12C renal): > 100 µM
- TGI (SN12C renal): > 100 µM
- GI50 (UACC-257 melanoma): > 100 µM
- TGI (UACC-257 melanoma): > 100 µM

SMILES: CC(=O)N(Cc1ccccc1)c1ccccc1I(=O)=O
- GI50 (786-0 renal): 57.8 µM
- TGI (786-0 renal): > 100 µM
- GI50 (ACHN renal): 36 µM
- TGI (ACHN renal): > 100 µM
- GI50 (COLO 205 colon): 28.9 µM
- TGI (COLO 205 colon): 90.4 µM
- GI50 (IGROV1 ovarian): 15.5 µM
- TGI (IGROV1 ovarian): > 100 µM
- GI50 (MOLT-4 leukemia): 12.7 µM
- TGI (MOLT-4 leukemia): 42.9 µM
- GI50 (NCI-H23 lung): 37.8 µM
- TGI (NCI-H23 lung): > 100 µM
- GI50 (SF-295 CNS): 48.3 µM
- TGI (SF-295 CNS): > 100 µM
- GI50 (SN12C renal): > 100 µM
- TGI (SN12C renal): > 100 µM
- GI50 (UACC-257 melanoma): > 100 µM
- TGI (UACC-257 melanoma): > 100 µM

SMILES: CC/C=C\C/C=C\C[C@H](O)C/C=C1/C(=O)C=C[C@@H]1C/C=C\CCCC(=O)OC
- GI50 (786-0 renal): 1.82 µM
- TGI (786-0 renal): 3.52 µM
- GI50 (ACHN renal): 1.72 µM
- TGI (ACHN renal): 3.4 µM
- GI50 (COLO 205 colon): 1.77 µM
- TGI (COLO 205 colon): 3.78 µM
- GI50 (IGROV1 ovarian): 2.86 µM
- TGI (IGROV1 ovarian): 7.86 µM
- GI50 (MOLT-4 leukemia): 1.2 µM
- TGI (MOLT-4 leukemia): 4.41 µM
- GI50 (NCI-H23 lung): 2.19 µM
- TGI (NCI-H23 lung): 5.29 µM
- GI50 (SF-295 CNS): 2.3 µM
- TGI (SF-295 CNS): 5.56 µM
- GI50 (SN12C renal): 1.9 µM
- TGI (SN12C renal): 5.01 µM
- GI50 (UACC-257 melanoma): 1.83 µM
- TGI (UACC-257 melanoma): 4.32 µM

SMILES: O=C1CN(/N=C/c2ccc(-c3ccc(F)cc3)o2)C(=O)N1
- TGI (786-0 renal): > 100 µM
- TGI (ACHN renal): > 100 µM
- TGI (COLO 205 colon): > 100 µM
- TGI (IGROV1 ovarian): > 100 µM
- TGI (MOLT-4 leukemia): > 100 µM
- TGI (NCI-H23 lung): > 100 µM
- TGI (SF-295 CNS): > 100 µM
- TGI (SN12C renal): > 100 µM
- TGI (UACC-257 melanoma): > 100 µM

SMILES: Cc1nc(-n2nc(-c3ccccc3)cc2-c2ccccc2)sc1C(/C=C/c1ccc([N+](=O)[O-])cc1)=N/NC(=O)c1ccncc1
- TGI (786-0 renal): 37 µM
- TGI (ACHN renal): > 100 µM
- TGI (COLO 205 colon): 58.4 µM
- TGI (IGROV1 ovarian): > 100 µM
- TGI (MOLT-4 leukemia): 43.4 µM
- TGI (NCI-H23 lung): 40.6 µM
- TGI (SF-295 CNS): > 100 µM
- TGI (SN12C renal): > 100 µM
- TGI (UACC-257 melanoma): > 100 µM

SMILES: CC1OC(OC2CCC3(C=O)C4CCC5(C)C(C6=CC(=O)OC6)CCC5(O)C4CCC3(O)C2)C(O)C(O)C1O (stereo not drawn)
- TGI (786-0 renal): 3.2e-05 µM
- TGI (ACHN renal): 6.36e-05 µM
- TGI (COLO 205 colon): 0.0025 µM
- TGI (IGROV1 ovarian): 0.0179 µM
- TGI (MOLT-4 leukemia): 1.6e-05 µM
- TGI (NCI-H23 lung): 4.11e-05 µM
- TGI (SF-295 CNS): 6.69e-05 µM
- TGI (SN12C renal): 3.74e-05 µM
- TGI (UACC-257 melanoma): 0.000259 µM

SMILES: Cc1cc(Cl)ccc1Nc1nc(C(F)(F)F)ccc1C(=O)N1CCN(c2cccc(Cl)c2)CC1
- GI50 (786-0 renal): > 100 µM
- TGI (786-0 renal): > 100 µM
- GI50 (ACHN renal): > 100 µM
- TGI (ACHN renal): > 100 µM
- GI50 (COLO 205 colon): > 100 µM
- TGI (COLO 205 colon): > 100 µM
- GI50 (IGROV1 ovarian): 1.78 µM
- TGI (IGROV1 ovarian): > 100 µM
- GI50 (MOLT-4 leukemia): 19.6 µM
- TGI (MOLT-4 leukemia): > 100 µM
- GI50 (NCI-H23 lung): > 100 µM
- TGI (NCI-H23 lung): > 100 µM
- GI50 (SF-295 CNS): 88.9 µM
- TGI (SF-295 CNS): > 100 µM
- GI50 (SN12C renal): > 100 µM
- TGI (SN12C renal): > 100 µM
- GI50 (UACC-257 melanoma): > 100 µM
- TGI (UACC-257 melanoma): > 100 µM

SMILES: OCNCCNc1nc2ccccc2c2[nH]c3ccccc3c12
- GI50 (786-0 renal): 0.34 µM
- TGI (786-0 renal): 2.35 µM
- GI50 (ACHN renal): 0.38 µM
- TGI (ACHN renal): 2.24 µM
- GI50 (COLO 205 colon): 1.76 µM
- TGI (COLO 205 colon): > 50 µM
- GI50 (IGROV1 ovarian): 1.14 µM
- TGI (IGROV1 ovarian): 7.31 µM
- GI50 (MOLT-4 leukemia): 0.809 µM
- TGI (MOLT-4 leukemia): > 50 µM
- GI50 (NCI-H23 lung): 0.772 µM
- TGI (NCI-H23 lung): 2.69 µM
- GI50 (SF-295 CNS): 1.41 µM
- TGI (SF-295 CNS): 5.97 µM
- GI50 (SN12C renal): 1.26 µM
- TGI (SN12C renal): 3.66 µM
- GI50 (UACC-257 melanoma): 1.64 µM
- TGI (UACC-257 melanoma): 5.71 µM

SMILES: COc1cc(/C=C(\C#N)C(N)=C(C#N)C#N)cc(O)c1O
- TGI (786-0 renal): > 100 µM
- TGI (ACHN renal): > 100 µM
- TGI (COLO 205 colon): > 100 µM
- TGI (IGROV1 ovarian): > 100 µM
- TGI (MOLT-4 leukemia): > 100 µM
- TGI (NCI-H23 lung): > 100 µM
- TGI (SF-295 CNS): > 100 µM
- TGI (SN12C renal): > 100 µM
- TGI (UACC-257 melanoma): > 100 µM

SMILES: O=c1[nH]c2ccccc2n1-c1n[nH]c2ccccc12
- GI50 (786-0 renal): 46.6 µM
- TGI (786-0 renal): > 100 µM
- GI50 (ACHN renal): 29.9 µM
- TGI (ACHN renal): > 100 µM
- GI50 (COLO 205 colon): 28.7 µM
- TGI (COLO 205 colon): > 100 µM
- GI50 (IGROV1 ovarian): 8.29 µM
- TGI (IGROV1 ovarian): > 100 µM
- GI50 (MOLT-4 leukemia): 17.3 µM
- TGI (MOLT-4 leukemia): 84.9 µM
- GI50 (NCI-H23 lung): 38.5 µM
- TGI (NCI-H23 lung): > 100 µM
- GI50 (SF-295 CNS): 25.4 µM
- TGI (SF-295 CNS): 59.8 µM
- GI50 (SN12C renal): 37.2 µM
- TGI (SN12C renal): > 100 µM
- GI50 (UACC-257 melanoma): 42.1 µM
- TGI (UACC-257 melanoma): > 100 µM

SMILES: O=C(Nc1ccccc1C(=O)N/N=C(\c1ccccc1)c1ccccn1)c1ccc(F)cc1
- GI50 (786-0 renal): 0.281 µM
- TGI (786-0 renal): 8.44 µM
- GI50 (ACHN renal): 0.127 µM
- GI50 (COLO 205 colon): 0.215 µM
- TGI (COLO 205 colon): > 100 µM
- GI50 (IGROV1 ovarian): 0.198 µM
- TGI (IGROV1 ovarian): > 100 µM
- GI50 (MOLT-4 leukemia): 0.284 µM
- TGI (MOLT-4 leukemia): > 100 µM
- GI50 (NCI-H23 lung): 0.595 µM
- TGI (NCI-H23 lung): > 100 µM
- GI50 (SF-295 CNS): 0.262 µM
- TGI (SF-295 CNS): > 100 µM
- GI50 (SN12C renal): 0.584 µM
- TGI (SN12C renal): > 100 µM
- GI50 (UACC-257 melanoma): 0.793 µM
- TGI (UACC-257 melanoma): > 100 µM
